Data on one compound can be found in paper PMC7378375, “High-Throughput Screening of a Functional Human CXCL12-CXCR4 Signaling Axis in a Genetically Modified S. cerevisiae: Discovery of a Novel Up-Regulator of CXCR4 Activity” (Frontiers in Molecular Biosciences, 2020).

What is called Kd is a measure of binding affinity in units of concentration. The low end stands for higher affinity, the high end for lower affinity.

This experiment deals with CXCL12 (Homo sapiens, UniProt P48061). Briefly: 1H-15N HSQC NMR titration of […]-CXCL12 (global fit of eight resonances, pH […]); supported by SEC-MALS. It is filed as binding. On the technique in general: SEC sorts molecules by how far they enter the pores of the column.
CXCL12, sequence (P48061 22-88): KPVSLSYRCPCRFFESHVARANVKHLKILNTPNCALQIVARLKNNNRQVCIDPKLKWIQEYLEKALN

The compound `O=C(O)c1ccccc1OP(=O)(O)O` [fosfosal, 2-(phosphonooxy) benzoic acid] returned a Kd of 147 µM.
